{
  "source": "patent US20130164384A1",
  "about": "“METHODS OF TREATING BOWEL DISEASES BY ADMINISTERING A BOWEL CLEANSER AND AN ANTIBIOTIC” (Salix Pharmaceuticals, Ltd., priority 2008, published 2013)",
  "origin": "cited, not measured here",
  "settings": "cited from earlier work",
  "note": "Like-named read-outs stand apart in the source and are kept apart here.",
  "data": [
    {"smiles": "CC(=O)Oc1ccc(C(c2ccc(OC(C)=O)cc2)c2ccccn2)cc1", "note": "[Bisacodyl]", "values": [
      {"measurement": "Time to produce a bowel movement", "setting": "enemas", "value": "about 20 minutes"},
      {"measurement": "Time to produce a bowel movement", "setting": "suppositories", "value": "about an hour"}
    ]}
  ]
}
